Source: PubChem BioAssay (NCI)
Several values for one entry are separate records, joined by “and”; a condition that tells them apart may be missing. Equal entries are not always repeated.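 Five concentrations, 48 hours, 96-well plates. GI50 = concentration required for 50% inhibition of growth. Definition used: TGI = concentration required for complete inhibition of growth.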

Assays:
Assay in all cases: inhibition of tumour cell growth, NCI panel, 48 h
NCI-H522 lung = test system: NCI-H522 lung
M19-MEL melanoma = test system: M19-MEL melanoma
A549 NSCLC = test system: A549 NSCLC
UACC-257 melanoma = test system: UACC-257 melanoma
OVCAR-8 ovarian = test system: OVCAR-8 ovarian
NCI-H226 lung = test system: NCI-H226 lung
LXFL 529 NSCLC = test system: LXFL 529 NSCLC
U251 CNS = test system: U251 CNS
BT-549 breast = test system: BT-549 breast
MCF7 breast = test system: MCF7 breast

SMILES	TGI (NCI-H522 lung)	TGI (M19-MEL melanoma) [µM]	TGI (A549 NSCLC)	TGI (UACC-257 melanoma)	TGI (OVCAR-8 ovarian)	TGI (NCI-H226 lung) [µM]	TGI (LXFL 529 NSCLC) [µM]	TGI (U251 CNS)	GI50 (A549 NSCLC) [µM]	GI50 (UACC-257 melanoma) [µM]	GI50 (OVCAR-8 ovarian) [µM]	TGI (BT-549 breast) [µM]	GI50 (MCF7 breast) [µM]	TGI (MCF7 breast)	GI50 (U251 CNS) [µM]	GI50 (NCI-H522 lung) [µM]	GI50 (BT-549 breast) [µM]	GI50 (NCI-H226 lung) [µM]
Cc1cc2c(=O)cc(-c3ccc(F)cc3)oc2c(C(=O)O)c1C	> 100 µM	> 100	> 100 µM	> 100 µM	> 100 µM	> 100	> 100	> 100 µM										
Cc1cc(C)c(C(=O)/C=C/c2ccccc2)c(C)c1	46.1 µM	> 100	> 100 µM	> 100 µM	30 µM	43.1	> 100	29.4 µM										
COc1cc2c(cc1OC)[C@@H]([C@H](O)c1ccccc1)NCC2	> 100 µM	> 100	> 100 µM	> 100 µM	> 100 µM	> 100	> 100	> 100 µM										
CC(C)(C)N=CN(C=C(c1ccccc1)c1ccccc1)C1CCCCC1		> 100	> 100 µM	> 100 µM	> 100 µM			> 100 µM										
O=C(CC1C(=O)Nc2ccccc2S1(=O)=O)Nc1cccc(Cl)c1 (stereo not drawn)	31.7 µM	34.8	40.8 µM	50 µM	33.1 µM	35.8	38.3	26.4 µM										
COc1ccc2c(c1)CCN1C3=C(CCC3)C(=O)C[C@@H]21	> 100 µM	> 100	> 100 µM	> 100 µM	> 100 µM	> 100	> 100	> 100 µM										
CCCCCCCCCCCCCCNCC(OCC)OCC	19.9 µM	30.5	37.6 µM	31.2 µM	40.4 µM	37.6	29	30.5 µM										
C[C@@](O)(/C=C/[C@H]1CC=CC(=O)O1)[C@@H](C[C@@H](O)\C=C/C=C\C=C\CO)OP(=O)(O)O	66.1 µM and 60.1 µM	25.6	49.6 µM and 57 µM	17.6 µM and 14.6 µM	90.7 µM and 86.5 µM	18.7		49 µM and 55.6 µM	13.1	7.2	12.3	36.6	5.01	13.9 µM and 50.4 µM	13.3			
Clc1ccc(C2=NOC3C4CCC(C4)C23)cc1 (stereo not drawn)	> 100 µM	> 100	> 100 µM	> 100 µM	> 100 µM	> 100	> 100	> 100 µM										
Clc1cccc2c1OCC1C(c3ccccc3)=NN(c3ccccc3)C21 (stereo not drawn)	> 100 µM	> 100	> 100 µM	> 100 µM	> 100 µM		> 100	> 100 µM										
Brc1ccc(C2SCc3nc4ccccc4n32)cc1 (stereo not drawn)	12.4 µM	27	> 100 µM		26.6 µM	34.1	22.2	25.2 µM										
CC/C(CC(=O)CCC(=O)Nc1ccc(C)c(C)c1)=N\NC(=O)C(N)=O	> 100 µM	> 100	> 100 µM	> 100 µM	> 100 µM	> 100	> 100	> 100 µM										
C/C=C1\CCC2c3[nH]c4ccccc4c3CCN2C1 (stereo not drawn)	> 100 µM	> 100	> 100 µM		> 100 µM	> 100	> 100	> 100 µM										
COC[C@@H](N=CN1CCc2cc(OC)c(OC)cc2C1)C(C)(C)C	> 100 µM	> 100	> 100 µM	> 100 µM	> 100 µM	> 100	> 100	> 100 µM										
O=C(Sc1sc(=S)sc1SC(=O)c1ccccc1)c1ccccc1	> 100 µM	51	70.6 µM	> 100 µM	> 100 µM		> 100	80.7 µM										
Cc1cc(NS(=O)(=O)c2ccc(NC(=O)COC(=O)c3cccc4c(=O)c5ccccc5[nH]c34)cc2)no1	> 100 µM	> 100	> 100 µM	> 100 µM	> 100 µM	> 100	> 100	> 100 µM										
COC1=CC(=O)NCCN1	> 100 µM	> 100	> 100 µM	> 100 µM	> 100 µM	> 100	> 100	> 100 µM										
CCc1ncnc2cc(OCC3CO3)c(OC)cc12 (stereo not drawn)	9.94 µM		> 100 µM	52.9 µM	14.3 µM	> 100		> 100 µM				15.1		> 42.7 µM				
C#C/C=C/CC1OC(C(Br)CC)CC(Br)C2CC1O2 (stereo not drawn)	21.1 µM		> 100 µM	> 100 µM	> 100 µM	> 100		> 100 µM				> 100		> 100 µM				
CC(=O)c1ccc2c(c1)N(CCCN(C)C)c1ccccc1S2	34.1 µM		34.2 µM	37.8 µM	37.4 µM	55.1		32.1 µM	17.7	18.7	17.7	25.8	16.6	34.5 µM	15.1	16.2	12.7	21.3
CCN(Cc1cccc(F)c1F)c1ccc(CO)c(Cl)c1	31.2 µM		24.2 µM	0.326 µM	48.3 µM	0.141		22.2 µM	1.54	0.0896	14.2	35.9	0.157	12.6 µM	0.63	14.1	18.5	0.0318
NCCN1C(=O)c2ccccc2C1(O)c1ccc(Cl)cc1 (stereo not drawn)	27.9 µM		67.3 µM	31.8 µM	> 100 µM	> 100		29.6 µM				> 100		32.6 µM				
C#CC(=O)OCC#CCOC(=O)C#C	9.81 µM		> 100 µM	> 100 µM	96 µM	40.3		35.6 µM				36.6		44.2 µM				
O=c1cc(O)c2c(O)cc(O)cc2o1	> 100 µM		> 100 µM	> 100 µM	> 100 µM	> 100		> 100 µM				> 100		> 100 µM				
Nc1cc2nc3ccccc3oc-2cc1=O	10.1 µM		3.84 µM	6.68 µM	> 100 µM	9.2		12.3 µM	1.66	2.35	19.7	3.53	1.35	3.33 µM	1.73	3.45	1.54	2.57
